Like-named read-outs stand apart in the source and are kept apart here.
Columns and labels:
[1] = TIM-1 gastrointestinal model bioaccessibility of maqui berry anthocyanins; type: in vitro ADME; details: for Total Bioaccessible Anthocyanin Amount: maqui berry extract in TIM-1, jejunal + ileal absorption over 4 h
[2] = first 4 h; cited from earlier work
diabetic C57b1/6J mice = details: gavage; cited from earlier work
[3] = tested on: colon cancer cells (HCT116); details: HCT116, among phenolic acids formed in TIM-2; cited from earlier work
[4] = maqui berry extract in TIM-1, over 4 h

OC[C@H]1O[C@@H](Oc2cc(O)cc3[o+]c(-c4cc(O)c(O)c(O)c4)c(O[C@@H]4O[C@H](CO)[C@@H](O)[C@H](O)[C@H]4O[C@@H]4OC[C@@H](O)[C@H](O)[C@H]4O)cc23)[C@H](O)[C@@H](O)[C@@H]1O [Delphinidin-3-sambubioside-5-glucoside]
Recovery in Ileal Efflux as a % of Intake [1, 4]: 0.32+/− 0.32 % of intake

OC[C@H]1O[C@@H](Oc2cc3c(O)cc(O)cc3[o+]c2-c2ccc(O)c(O)c2)[C@H](O)[C@@H](O)[C@@H]1O [Cyanidin-3-glucoside]
Recovery in ileostomy patients [2]: 1.5% | Total Bioaccessibility as % of intake [1]: 4.28 +/− 0.67 % of intake

COc1cc(-c2[o+]c3cc(O)cc(O)c3cc2O[C@@H]2O[C@H](CO)[C@@H](O)[C@H](O)[C@H]2O)cc(OC)c1O [malvidin-3-O-glucoside]
Effect on blood glucose levels (diabetic C57b1/6J mice): significantly hypoglycemic

O=C(O)Cc1ccc(O)c(O)c1 [3,4-dihydroxyphenylacetic acid]
Antiproliferative activity [3]: antiproliferative activity

Cyanidin-3-sambubioside-5-glucoside + cyanidin3,5-diglucoside
Total Bioaccessibility as % of intake [1]: 17.84 +/− 2.61 % of intake

OC[C@H]1O[C@@H](Oc2cc3c(O)cc(O)cc3[o+]c2-c2cc(O)c(O)c(O)c2)[C@H](O[C@@H]2OC[C@@H](O)[C@H](O)[C@H]2O)[C@@H](O)[C@@H]1O [Delphinidin-3-sambubioside]
Total Bioaccessibility as % of intake [1]: 1.23 +/− 0.49 % of intake | Recovery in Ileal Efflux as a % of Intake [1, 4]: 0.26 +/− 0.24 % of intake

OC[C@H]1O[C@@H](Oc2cc3c(O[C@@H]4O[C@H](CO)[C@@H](O)[C@H](O)[C@H]4O)cc(O)cc3[o+]c2-c2cc(O)c(O)c(O)c2)[C@H](O)[C@@H](O)[C@@H]1O [Delphinidin-3,5-diglucoside]
Total Bioaccessible Anthocyanin Amount [1]: 1.17 ± 0.57 mg | Recovery in Ileal Efflux as a % of Intake [1, 4]: 0.77 +/− 0.77 % of intake | Total Bioaccessibility as % of intake [1, 4]: 3.61 +/− 1.74 % of intake | Total Bioaccessibility as % of intake ([1]; maqui berry extract in TIM-1, over 4 h, listed as delphinidin-3,5-diglucoside): 3.6 % of intake

OC[C@H]1O[C@@H](Oc2cc3c(O)cc(O)cc3[o+]c2-c2cc(O)c(O)c(O)c2)[C@H](O)[C@@H](O)[C@@H]1O [Delphinidin-3-glucoside]
Total Bioaccessible Anthocyanin Amount [1]: 3.02 ± 1.83 mg | Recovery in Ileal Efflux as a % of Intake [1, 4]: 0.87 +/− 0.78 % of intake | Total Bioaccessibility as % of intake [1, 4]: 3.15 +/− 1.91 % of intake

— PMC3310271 (Journal of agricultural and food chemistry, 2011)
